Laboratory results from paper PMC3872965 (Journal of immunology (Baltimore, Md. : 1950), 2013).

System: B*0702-transgenic mice
Settings: mouse, in vivo, sc

Sequence: RPRWLDARV
- Average T cell response: 659 SFC/10^6 CD8^+
